According to patent US10933032B2, “Methods for the treatment of cancer using coenzyme Q10 combination therapies” (Berg LLC, priority 2013, dated 2021):

Assays:
[1] = system: MIAPaCa-2 human pancreatic tumor cells; assay: Xenogeneic mouse human pancreatic cancer model, survival; format: in vivo, NOD scid gamma (NSG) mice; settings: Example 1, Regimen 1, single agent: IV 4% Coenzyme Q10 50 mg/kg/day, or IV gemcitabine 150 mg/kg/week for 3 weeks with one week rest; FIG. 1
[2] = system: MIAPaCa-2 human pancreatic tumor cells; assay: Xenogeneic mouse human pancreatic cancer model, tumors harvested at mortality (size, weight, vasculature, palpation); format: in vivo, NOD scid gamma (NSG) mice; settings: Example 1, single agents: Group 2 Coenzyme Q10 IV 50 mg/kg/day; Group 3 gemcitabine 150 mg/kg/week; FIG. 2
[3] = system: acute lymphoblastic leukemias; settings: in combination with 60 mg/m^2 of prednisone, given daily; usually within 4 to 6 weeks; cited from earlier work
[4] = system: Mycosis fungoides (cutaneous T Cell lymphoma); settings: methotrexate as a single agent; cited from earlier work

SMILES | Survival (prolongation of life) compared to untreated control [1] | Growth of pancreatic tumors (tumor size at time of death) vs control [2] | Remissions, patients treated [3] | Clinical responses, patients treated [4]
Nc1ccn([C@@H]2O[C@H](CO)[C@@H](O)C2(F)F)c(=O)n1 [gemcitabine, reference compound] | prolongation of life as compared to untreated control | inhibited the growth of pancreatic tumors |  | 
CN(Cc1cnc2nc(N)nc(N)c2n1)c1ccc(C(=O)N[C@@H](CCC(=O)O)C(=O)O)cc1 [Methotrexate] |  |  | prednisone, given daily, produced remissions in 50% of patients treated, | 50% of patients treated. Dosage in early stages is usually 5 to 50 mg once
